Experimental data: ChEMBL document CHEMBL1145731, “A green fluorescent chemosensor for amino acids provides a versatile high-throughput screening (HTS) assay for proteases” (Bioorg Med Chem Lett, 2003)

Test: Concentration required for obtaining 50% of the fluorescence intensity of copper-free calcein 1, in bovine serum albumin

Compound	EC50
CC(C)CC(N)C(N)=O (stereo not given) [LEUCINAMIDE]	12000 µM
CC(C)[C@H](N)C(=O)O [VALINE]	1500 µM
CSCC[C@H](N)C(=O)O [METHIONINE]	800 µM
C[C@H](N)C(=O)O [ALANINE]	~800 µM
CC(C)C[C@H](N)C(=O)O [LEUCINE]	5000 µM

The next molecules have a lower EC50 than those just listed; values first:

EC50	Compound
500 µM	NCC(=O)O [GLYCINE]
700 µM	N[C@@H](CO)C(=O)O [SERINE]
10 µM	N[C@@H](Cc1c[nH]cn1)C(=O)O [HISTIDINE]
20 µM	N[C@@H](CS)C(=O)O [CYSTEINE]
10 µM	O=C(O)CN(CCN(CC(=O)O)CC(=O)O)CC(=O)O [EDETIC ACID]
